Patent EP4700023A1, “GLP-1R RECEPTOR AGONIST COMPOUND SALT AND CRYSTAL FORM THEREOF, PREPARATION METHOD THEREFOR AND USE THEREOF” (Chengdu Vincentage Pharma Co., Ltd., priority 2023, dated 2024)
Where a name gives a salt, the structure may show the parent alone.

Experiments:
[1] = Grindability test (mortar, XRPD detection); assay type: physicochemical; settings: for Grindability (mortar 5 min), solid form: XRPD
Description: Grindability test: An appropriate amount of the crystal compound to be tested was placed in a mortar and ground for 2 min and 5 min, followed by XRPD detection.

Solubility test = assay type: physicochemical; settings: thermodynamic from solid, water, 37°C, HPLC
Description: Approximately 10 mg of the crystal compound was weighed and added to 3 mL of water, shaken, and maintained at 37°C.

[2] = Compressibility test (tableting, XRPD detection); assay type: physicochemical; settings: compressed into tablets
[3] = Pharmacokinetic evaluation in rats; assay type: in vivo; settings: Rat PK, 10 mg/kg
Description: Rats were used as test animals, and the plasma drug concentrations at different time points after gavage administration of the test sample were measured. The pharmacokinetic behavior of the compound of the present disclosure in rats was studied to evaluate its metabolic characteristics. For each experimental group, 3 rats with similar body weights were selected and orally administered a single dose of 10 mg/kg. […] Pharmacokinetic parameter calculations were performed using metabolic kinetic data analysis software WinNonlin 7.0 by non-compartmental analysis (NCA) based on plasma concentration data.
A test sample with a final preparation concentration (based on the content of the compound of formula I) of 1.0 mg/mL was prepared for oral administration, using a 0.5% CMC Na aqueous solution as the preparation solvent.
Administration: After overnight fasting (12 hours), rats were administered by gavage at a dose of 10 mg/kg.
The blood samples were placed in heparinized sample tubes, and centrifuged at 4°C and 3500 rpm for 10 minutes to separate plasma, which was then stored at -20°C. Food was provided 2 hours after administration.
Determination of the content of the compound to be tested in rat plasma after gavage administration: After thawing plasma samples at room temperature, 300 µL of internal standard (terfenadine 200 ng/mL, acetonitrile) was added to each sample. The mixtures were vortexed for 1 min and then centrifuged at 4°C and 15400 rpm for 10 min. The supernatant was diluted 20-fold with 80% acetonitrile-water and then injected for LC/MS/MS analysis.

[4] = Purity test after storage in an oven at set temperature (stability); assay type: physicochemical
[5] = Hygroscopicity test method (DVS); assay type: physicochemical; set-up: Sorption / Desorption / Hysteresis: unit not given here; settings: for Hygroscopicity (80% RH) / Hygroscopicity (80% RH), description in words: 25°C, DVS; for Desorption / Sorption / Hysteresis: onset temperature 24.9°C
Description: Hygroscopicity test method (DVS): The hygroscopicity of the sample was measured using SMS Intrinsic Plus. The sample was weighed into a sample pan, equilibrated at 25°C until dm/dt was less than 0.002%, and then measured in time mode. The humidity was adjusted from 60%-90%-0%-90%-0% RH, with increments of 10% RH per step, and each humidity level was maintained for 1 hour.

[6] = Purity test after storage in an oven at set temperature (stability); assay type: physicochemical; settings: for Purity, Onset: Onset (before storage)
Description: Purity test: The sample to be tested was dissolved in a methanol solution, and the sample purity was measured by HPLC.

[7] = Tableting and grinding test (XRPD, FIG. 21 to 25); assay type: physicochemical; settings: first and second tableting at 20 MPa, tableting at 40 MPa, grinding for 1, 3 and 5 minutes; FIG. 24, 25
Description: Grindability test: An appropriate amount of the crystal compound to be tested was placed in a mortar and ground for 2 min and 5 min, followed by XRPD detection. […]

[8] = Comparison of crystal forms of the salt (behaviour during preparation); settings: during the preparation process
[9] = Cycle 2, target humidity 0.0 % P/P0
[10] = Cycle 2, target humidity 10.0 % P/P0
[11] = Cycle 2, target humidity 20.0 % P/P0
[12] = Cycle 2, target humidity 30.0 % P/P0
[13] = Cycle 2, target humidity 40.0 % P/P0
[14] = Cycle 2, target humidity 50.0 % P/P0
[15] = Cycle 2, target humidity 60.0 % P/P0
[16] = Cycle 2, target humidity 70.0 % P/P0
[17] = Cycle 2, target humidity 80.0 % P/P0
[18] = Cycle 2, target humidity 90.0 % P/P0
[19] = Target humidity 60.0 % P/P0, first cycle
[20] = Target humidity 70.0 % P/P0, first cycle
[21] = Target humidity 80.0 % P/P0, first cycle
[22] = Target humidity 90.0 % P/P0, first cycle

## O=C(O)c1ccc2nc(CN3CCC(c4ccccc4OCc4ccc(Cl)cc4F)CC3)n(C[C@@H]3CCO3)c2c1 [Compound of formula I]
[1]
  Grindability (mortar 5 min), purity change: 6.5%
  Grindability (mortar 5 min), solid form: Amorphous
Solubility test
  solubility at 24 h: < 1 µg/mL
[2]
  Compressibility (20 Mp): Significant reduction in crystallinity, amorphization
[3]; plasma, oral (PO)
  AUC(0-inf): 401 ng·h/mL
  AUC(0-t): 396 ng·h/mL
  Cmax: 154 ng/mL
  Tmax: 40 min
  half-life: 65.4 min
[4]; 80 °C for 30 days (footnote c)
  Solid form after 80°C (result after 30 days): amorphous
[5]
  Hygroscopicity (80% RH): 0.25%
  Hygroscopicity (80% RH), description in words: 10 to 90% RH linear reversible
[6]; HPLC
  Purity, 2 to 8°C (6 months): 82.49%
  Purity, Onset: 99.15%
[6]; conclusion from Table 13, degrades under heating or room temperature
  Thermal stability: poor thermal stability
[6]; oven, HPLC
  Purity, 60°C (7 day): 99.15%
[6]; oven, 80 °C for 30 days (footnote c), HPLC
  Purity, 80°C (result after 30 days): 70.18%

## O=C(O)c1ccc2nc(CN3CCC(c4ccccc4OCc4ccc(Cl)cc4F)CC3)n(C[C@@H]3CCO3)c2c1 [Crystal form A of the monohydrate of the compound of formula] [Crystal form A of the monohydrate of the 2-amino-2-(hydroxymethyl)-1,3-propanediol salt of (S)-2-((4-(2-((4-chloro-2-fluorobenzyl)oxy)phenyl)piperidin-1-yl)methyl)-1-(oxetan-2-aminomethyl)-1H-benzo[d]imidazole-6-carboxylate]
[1]
  Grindability (mortar 5 min), purity change: purity unchanged
  Grindability (mortar 5 min), solid form: Crystalline form unchanged
[2]
  Compressibility (20 Mp): Crystal form unchanged
[7]
  Crystallinity after tableting and grinding: basically stable
[3]; compared with the free acid
  Oral absorption: significantly better oral absorption than the compound of formula I (free acid)
[4]; 80°C, 1 day
  Solid form after 80°C (1 day): retained the crystal form
[5]
  Hygroscopicity (80% RH): 0.34%
  Hygroscopicity (80% RH), description in words: Slightly hygroscopic
[5]; [9]
  Desorption: 0.0112
  Sorption: 0.0000
[5]; [10]
  Desorption: 0.1186
  Hysteresis: 0.0161
  Sorption: 0.1025
[5]; [11]
  Desorption: 0.1641
  Hysteresis: 0.0175
  Sorption: 0.1466
[5]; [12]
  Desorption: 0.1996
  Hysteresis: 0.0182
  Sorption: 0.1814
[5]; [13]
  Desorption: 0.2286
  Hysteresis: 0.0145
  Sorption: 0.2141
[5]; [14]
  Desorption: 0.2611
  Hysteresis: 0.0167
  Sorption: 0.2443
[5]; [15]
  Desorption: 0.2923
  Hysteresis: 0.0177
  Sorption: 0.2746
[5]; [16]
  Desorption: 0.3219
  Hysteresis: 0.0176
  Sorption: 0.3043
[5]; [17]
  Desorption: 0.3457
  Hysteresis: 0.0099
  Sorption: 0.3458
[5]; [18]
  Desorption: 0.3759
  Sorption: 0.3759
[5]; Target humidity 0.0 % P/P0, first cycle
  Desorption: 0.0000
[5]; Target humidity 10.0 % P/P0, first cycle
  Desorption: 0.1080
[5]; Target humidity 20.0 % P/P0, first cycle
  Desorption: 0.1542
[5]; Target humidity 30.0 % P/P0, first cycle
  Desorption: 0.1894
[5]; Target humidity 40.0 % P/P0, first cycle
  Desorption: 0.2213
[5]; Target humidity 50.0 % P/P0, first cycle
  Desorption: 0.2553
[5]; [19]
  Desorption: 0.2989
  Hysteresis: 0.0002
  Sorption: 0.2896
[5]; [20]
  Desorption: 0.3213
  Hysteresis: 0.0053
  Sorption: 0.3160
[5]; [21]
  Desorption: 0.3490
  Hysteresis: 0.0064
  Sorption: 0.3426
[5]; [22]
  Desorption: 0.3817
  Sorption: 0.3817
[6]; HPLC
  Purity, 2 to 8°C (6 months): 99.90%
  Purity, Onset: 99.95%
[6]; oven, HPLC
  Purity, 60°C (7 day): 99.90%
[6]; oven, 80°C, 1 day, HPLC
  Purity, 80°C (1 day): 99.35%

## C1COCCO1.NC(CO)(CO)CO.O=C(O)c1ccc2nc(CN3CCC(c4ccccc4OCc4ccc(Cl)cc4F)CC3)n(CC3CCO3)c2c1 [Crystal form B of the 1,4-dioxane solvate of the 2-amino-2-(hydroxymethyl)-1,3-propanediol salt of (S)-2-((4-(2-((4-chloro-2-fluorobenzyl)oxy)phenyl)piperidin-1-yl)methyl)-1-(oxetan-2-aminomethyl)-1H-benzo[d]imidazole-6-carboxylate]
[8]
  Crystal form stability during preparation: unstable, prone to crystal form transformation during preparation
